According to EPA's ToxValDB 9.5 (doi:10.2903/j.efsa.2013.3143):
Several values for one entry are separate records, joined by “and”; a condition that tells them apart may be missing. Identical values can stand only once.

Legend:
[1] = test system: Apis mellifera; details: acute, mortality
[2] = test system: Daphnia magna; details: chronic/long-term; duration: 21 days; reproduction
[3] = test system: Mus musculus
[4] = test system: Tagia sp.
[5] = test system: Oncorhynchus mykiss; details: chronic/long-term; duration: 90 days; development
[6] = test system: Canidae; details: chronic; duration: 1 years; oral; Dog Other; organ weight
[7] = test system: Hypoaspis aculeifer; details: chronic/long-term; duration: 16 days; mortality
[8] = test system: Bibionidae; details: chronic/long-term; duration: 28 days; other
[9] = test system: Colinus virginianus
[10] = test system: Rattus norvegicus; details: for LD50: acute, oral, mortality
[11] = test system: Cyprinodon variegatus; details: acute; duration: 96 hours; mortality
[12] = test system: Typhlodromus pyri; experiment: LR50; higher = less toxic; details: chronic/long-term; duration: 7 days; mortality

Compound | LD50 ([1]; duration: 48 hours, oral, unspecified) [µg/piece] | LD50 ([1]; duration: 72 hours, dermal) [µg/piece] | NOEC [2] [mg/L] | NOAEL ([3]; chronic, duration: 18 months, histopathology: nonneoplastic) [mg/kg-day] | LC50 ([4]; acute, duration: 14 days, mortality) [mg/kg] | NOEC ([4]; chronic/long-term, duration: 56 days, reproduction) [mg/kg] | NOEC [5] [mg/L] | NOAEL [6] [mg/kg-day] | NOEC [7] [mg/kg] | NOEC [8] | LC50 ([9]; acute, oral, diet, mortality) [mg/kg-day] | LD50 ([9]; acute, oral, mortality) [mg/kg-day] | NOAEL ([9]; reproduction developmental, reproduction) [mg/kg-day] | LD50 [10] [mg/kg-day] | NOAEL ([10]; chronic, duration: 2 years, organ weight) [mg/kg-day] | NOAEL ([10]; reproduction developmental, no effects) [mg/kg-day] | LC50 [11] [µg/mL] | LR50 [12] [g/ha] | LD50 ([3]; acute, oral, mortality) [mg/kg-day]
CNC(=O)c1cc(Cl)cc(C)c1NC(=O)c1cc(Br)nn1-c1ncccc1Cl [Chlorantraniliprole] | > 104 | > 4 | 0.00447 | 158 | > 1000 | 1000 | 0.11 | 278 | 100 | 0.0025 mg/L and 0.005 mg/kg | > 1730 | > 2250 | 10.1 | > 5000 | 156 | 1200 | > 12 | > 750 | –
Cc1cc(Cl)cc2c(=O)n(C)c(-c3cc(Br)[nH]n3)nc12 [Chlorantraniliprole metabolite (IN-LBA24)] | – | – | – | – | – | – | – | – | – | – | – | – | – | > 2000 | – | – | – | – | –
CNC(=O)c1cc(Br)[nH]n1 [5-Bromo-N-methyl-1H-pyrazole-3-carboxamide] | – | – | – | – | – | – | – | – | – | – | – | – | – | – | – | – | – | – | > 2000
